Assay [1] deals with T1, complement C5a receptor 1 (C5aR1) (Homo sapiens, UniProt P21730).
T1 construct: β-galactosidase fragment (PathHunter enzyme complementation); host or cells: CHO-K1 (PathHunter CHO-K1 C5aR1 β-arrestin cell line)
T1 sequence (P21730 1-350): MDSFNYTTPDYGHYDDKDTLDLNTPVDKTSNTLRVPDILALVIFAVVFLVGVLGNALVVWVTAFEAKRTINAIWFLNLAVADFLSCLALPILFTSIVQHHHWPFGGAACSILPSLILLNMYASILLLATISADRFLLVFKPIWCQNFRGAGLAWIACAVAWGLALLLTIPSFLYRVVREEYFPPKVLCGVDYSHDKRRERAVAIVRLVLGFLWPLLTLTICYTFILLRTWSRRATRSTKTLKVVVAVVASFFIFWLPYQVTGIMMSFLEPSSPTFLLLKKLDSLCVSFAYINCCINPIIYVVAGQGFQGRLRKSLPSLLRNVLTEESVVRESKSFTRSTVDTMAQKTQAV
Put plainly: β-arrestin recruitment via C5aR1 activation in live CHO-K1 cells (PathHunter), agonist mode. The assay is classed as cell-based. The method, boiled down:
(§1)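 Live CHO-K1 cells expressing β-galactosidase fragments fused to β-arrestin and C5aR1; recruitment is read by fragment complementation. In agonist mode compounds are tested alone; in antagonist mode they compete against recombinant hC5a at EC90. IC50 reported in binned ranges.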
In general terms: Recruitment of arrestin is a read-out of receptor activation apart from second messengers.

Assay [2] concerns the target T1, complement C5a receptor 1 (C5aR1). Put plainly: β-arrestin recruitment via C5aR1 activation in live CHO-K1 cells (PathHunter), antagonist mode. The conditions noted are these: antagonist mode; recombinant hC5a (EC90) as competing natural agonist; live CHO-K1 cells; read-out: [Antagonist] B-arrestin2 recruitment: Average IC50. The class given is cell-based. In a few lines: as §1

This note sets out measurements from patent US20260317320A1, “C5AR1 ANTAGONISTS AND USES THEREOF” (Vanqua Bio, Inc., priority 2022, published 2026).

Read-outs that look alike come from different tables or passages of the source.

The term IC50 denotes the concentration needed to halve the response being measured. Regarding `Cc1cnc2cc(C3CCN(c4nccnc4C(F)(F)F)CC3)c(=O)n(Cc3ncccc3C(F)(F)F)c2n1` [compound 156, 3-Methyl-7-(1-(3-(trifluoromethyl)pyrazin-2-yl)piperidin-4-yl)-5-((3-(trifluoromethyl)pyridin-2-yl)methyl)pyrido[2,3-b]pyrazin-6(5H)-one], the “[Agonist] B-arrestin2 recruitment: Average EC50 (nM)” value (“[Agonist] B-arrestin2 recruitment” below) in assay [1] (at 10 μM) is reported as “Non-Active at 10 μM”. Besides, the IC50 in assay [2] is 500 to 5000 nM.

As for `Cc1cccc(F)c1[C@H]1CC[C@H](c2cc3nc(CC(F)F)cnc3n(Cc3ncccc3C(F)(F)F)c2=O)CC1` [compound 226, 2-(2,2-Difluoroethyl)-7-((1r,4r)-4-(2-fluoro-6-methylphenyl)cyclohexyl)-5-((3-(trifluoromethyl)pyridin-2-yl)methyl)pyrido[2,3-b]pyrazin-6(5H)-one], the “[Agonist] B-arrestin2 recruitment” value in assay [1] (at 10 μM) is listed as “Non-Active at 10 μM”. The IC50 in assay [2] is < 500 nM.

`Cc1cccc(F)c1N1CCC(c2nc3ccccc3n(Cc3nccnc3C(F)(F)F)c2=O)CC1` [compound 136, 3-(1-(2-Fluoro-6-methylphenyl)piperidin-4-yl)-1-((3-(trifluoromethyl)pyrazin-2-yl)methyl)quinoxalin-2(1H)-one]: the “[Agonist] B-arrestin2 recruitment” value in assay [1] was “Non-Active”. In addition, the concentration for half-maximal inhibition (IC50) in assay [2] was > 100000 nM.

Regarding `Cc1cnc2cc([C@H]3CC[C@@H](c4c(C)cccc4F)C3)c(=O)n(Cc3ncccc3OC(F)F)c2n1` [175A, 5-((3-(Difluoromethoxy)pyridin-2-yl)methyl)-7-((1S,3R)-3-(2-fluoro-6-methylphenyl)cyclopentyl)-3-methylpyrido[2,3-b]pyrazin-6(5H)-one], in assay [1], the “[Agonist] B-arrestin2 recruitment” value is on record as “Non-Active”. Also, the IC50 in assay [2] is < 500 nM.

Turning to `Cc1cnc2cc([C@H]3CC[C@H](c4c(C)cncc4F)CC3)c(=O)n(Cc3ncccc3C(F)(F)F)c2n1` [compound 237, 7-((1r,4r)-4-(3-Fluoro-5-methylpyridin-4-yl)cyclohexyl)-3-methyl-5-((3-(trifluoromethyl)pyridin-2-yl)methyl)pyrido[2,3-b]pyrazin-6(5H)-one], the “[Agonist] B-arrestin2 recruitment” value in assay [1] was “Non-Active”. Further, in assay [2], the IC50 was < 500 nM.

On to `Cc1cnc2cc([C@H]3CC[C@H](c4c(F)cccc4F)CC3)c(=O)n(Cc3ncccc3CC(F)(F)F)c2n1` [compound 236, 7-((1r,4r)-4-(2,6-Difluorophenyl)cyclohexyl)-3-methyl-5-((3-(2,2,2-trifluoroethyl)pyridin-2-yl)methyl)pyrido[2,3-b]pyrazin-6(5H)-one], for which the “[Agonist] B-arrestin2 recruitment” value in assay [1] (at 10 μM) is given as “Non-Active at 10 μM”. The IC50 in assay [2] was < 500 nM.

For the compound `Cc1ccc2cc([C@H]3CC[C@H](c4c(C)cccc4F)CC3)c(=O)n(Cc3ncccc3C(F)F)c2n1` [compound 193, 1-((3-(Difluoromethyl)pyridin-2-yl)methyl)-3-((1r,4r)-4-(2-fluoro-6-methylphenyl)cyclohexyl)-7-methyl-1,8-naphthyridin-2(1H)-one], the “[Agonist] B-arrestin2 recruitment” value in assay [1] is “Non-Active”. For the same compound, the IC50 in assay [2] is < 500 nM.

As for `Cc1cnc2cc([C@H]3CC[C@H](c4c(C)cccc4F)C3)c(=O)n(Cc3ncccc3C(F)F)c2n1` [187B, 5-((3-(Difluoromethyl)pyridin-2-yl)methyl)-7-((1S,3S)-3-(2-fluoro-6-methylphenyl)cyclopentyl)-3-methylpyrido[2,3-b]pyrazin-6(5H)-one], in assay [1] (at 10 μM), the “[Agonist] B-arrestin2 recruitment” value is given as “Non-Active at 10 μM”. Also, in assay [2], the IC50 is < 500 nM.

For `Cc1cnc2cc([C@H]3CC[C@H](c4c(F)ccc5c4cnn5C)CC3)c(=O)n(Cc3ncccc3C(F)(F)F)c2n1` [compound 207, 7-((1r,4r)-4-(5-Fluoro-1-methyl-1H-indazol-4-yl)cyclohexyl)-3-methyl-5-((3-(trifluoromethyl)pyridin-2-yl)methyl)pyrido[2,3-b]pyrazin-6(5H)-one], the “[Agonist] B-arrestin2 recruitment” value in assay [1] (at 10 μM) was “Non-Active at 10 μM”. In assay [2], the IC50 lay within 5000 to 100000 nM.

In the case of `Cc1ccnc(F)c1N1CCC(c2cc3nccnc3n(Cc3nccnc3C)c2=O)CC1` [compound 128, 7-(1-(2-Fluoro-4-methylpyridin-3-yl)piperidin-4-yl)-5-((3-methylpyrazin-2-yl)methyl)pyrido[2,3-b]pyrazin-6(5H)-one], the “[Agonist] B-arrestin2 recruitment” value in assay [1] (at 10 μM) is “Non-Active at 10 μM”. Moreover, in assay [2], the IC50 lay in the range of 5000 to 100000 nM.

For the compound `Cc1ccc2cc([C@H]3CC[C@H](c4c(C)ccnc4F)CC3)c(=O)n(Cc3ncccc3C(C)(F)F)c2n1` [compound 258, 1-((3-(1,1-difluoroethyl)pyridin-2-yl)methyl)-3-((1r,4r)-4-(2-fluoro-4-methylpyridin-3-yl)cyclohexyl)-7-methyl-1,8-naphthyridin-2(1H)-one], the “[Agonist] B-arrestin2 recruitment” value in assay [1] is on record as “Non-Active”. For the same compound, in assay [2], the IC50 is < 500 nM.
